Assay [1] concerns Namalwa cells. Kind of assay: NOD/SCID mouse model of Burkitt's Non-Hodgkin's Lymphoma. The assay is classed as in vivo, NOD/SCID mice. The settings on record: Namalwa subcutaneous tumors; PT-100 5 μg twice daily day 2 to 20; antibody or normal human IgG 1.5 mg on days 3, 5 and 7. As for the experimental part: Immunodeficient NOD/SCID mice were inoculated with Namalwa cells derived from a Burkitt's NHL. The human lymphoma cells proliferated in the immunodeficient mice to form solid subcutaneous tumors. Mice were administered 1.5 mg of normal human lgG or 1.5 mg of a human CD20-specific antibody (Rituxan) on each of days 3, 5 and 7 after tumor inoculation. Additional treatments with 5 μg PT-100 administered twice daily from day 2 until day 20 after tumor inoculation were given as indicated in the Figure Legend. The four treatment groups each contained 4 or 5 replicate mice. The data represent mean tumor volumes (±SE). Control treatment with normal human IgG had no effect on tumor growth as compared with saline treatment (data not shown). […] The data support the concept that when combined together, PT-100 and a tumor-specific antibody can have a greater growth inhibitory effect against a tumor than either treatment by itself.

Assay [2] deals with IL-1β, G-CSF and KC. Kind of assay: ELISA of IL-1β, G-CSF and KC in serum and spleen extracts of BALB/c mice. Type of assay: in vivo. The settings on record: 20 μg oral, 8 hours after administration. How it is done: BALB/c mice were orally administered 20 μg PT-100 or saline as indicated on the abscissae. Eight hours after PT-100 administration, IL-1β, G-CSF and KC levels were determined by ELISA (R&D Systems) of serum and extracts of spleens. Cytokine and chemokine levels are indicated on the ordinate as pg/ml or ng/ml of serum, and as pg/mg or ng/mg of protein in each spleen extract as determined by BCA protein assays (Pierce).
(In general: In an ELISA, binding on a coated surface is turned into a signal by an enzyme label.)

Assay [3] concerns cytokine and chemokine genes. Kind of assay: Cytokine and chemokine gene expression (Affymetrix GeneChips) in lymph nodes and WEHI 164 tumors. Type of assay: in vivo, mice. Particulars: 5 μg twice daily. How it is done:
(§1) Mice were inoculated with WEHI 164 cells, and starting 2 days later, administered (twice daily) a 5 μg dose of PT-100 or saline (control). RNA extracted from lymph nodes and tumors 2 hours after the first dose of PT-100 on day 4 after tumor inoculation was processed, labeled and hybridized to Affymetrix GeneChips according to the manufacturer's instructions. The log ratio of expression values (PT-100 treated:saline treatment) has been plotted on the ordinates for the cytokine and chemokine genes indicated on the abscissae. Zero values indicate that gene expression was either undetectable or unaffected by PT-100 treatment.
as §1, with “tumors 30 minutes or” for “tumors”, “ratios for” for “ratio of”, “have” for “has”, “cytokine” for “cytokine and chemokine”, “treatment. […]” for “treatment.”

Assay [4] relates to WEHI 164 tumor cells. Kind of assay: WEHI 164 tumor growth and rejection in euthymic and athymic BALB/c mice. The assay is classed as in vivo. The settings on record: 5 μg dose; for tumor growth (tumor volume): day 2 until day 20 after tumor inoculation. How it is done:
Normal euthymic BALB/c mice (+/+) or athymic BALB/c mice that are congenitally deficient in mature T lymphocytes (nu/nu) were inoculated with WEHI 164 tumor cells. The mice were administered a 5 μg dose of PT-100 or saline (control) from day 2 until day 20 after tumor inoculation and tumor volumes ([…]) were measured at the times indicated on the ordinate. Each treatment group contained 10 replicate mice. […] In euthymic mice, however, tumors were completely rejected by day 20 in 40 per cent of the mice treated with PT-100 whereas tumor rejection was not observed in PT-100 treated athymic mice. In the WEHI 164 tumor model, tumor rejection never occurred spontaneously in control mice. […] The data are consistent with a mechanism of action involving increased production of cytokines and chemokines in mice treated with PT-100 as described in Example 1.

Assay [5] concerns IL-1β, G-CSF and KC. Kind of assay: ELISA of IL-1β, G-CSF and KC in serum and spleen extracts of B6 and IL-1 receptor-1 mutant mice. Type of assay: in vivo. The settings on record: 40 or 160 μg oral, 8 hours. How it is done: Normal B6 mice (+/+) and congenic B6.129S7-Illr1^tmllmx mice with a targeted mutation of the IL-1 receptor-1 (−/−) were orally administered 40 or 160 μg of PT-100 or saline as indicated on the abscissae. 8-hours after PT-100 administration, IL-1β, G-CSF and KC levels were determined by ELISA of serum and extracts of spleen. Cytokine and chemokine levels are indicated on the ordinate as pg/ml or ng/ml of serum, and as pg/mg or ng/mg of protein in each spleen extract as determined by BCA protein assays.

The mark [6] stands for this setting: IL-1 receptor-1 mutant (−/−) mice.

Turning to `CC(C)[C@H](N)C(=O)N1CCC[C@H]1B(O)O` [PT-100, Val-boroPro], the “tumor growth (mean tumor volume)” value in assay [1] is recorded as “significantly (p<0.05) inhibited tumor growth”. In assay [2] (serum), the “G-CSF levels in serum” value is “increased in both spleen and serum”; the IL-1β serum levels result is listed as “without increasing serum levels”; the “KC levels in serum” value is “increased in both spleen and serum”. For the same molecule, in assay [2] (spleen extract), the “G-CSF levels in spleen” value is “increased in both spleen and serum”; the “IL-1β levels in spleen tissue” value was “increases IL-1β levels in spleen tissue”; the “KC levels in spleen” value was “increased in both spleen and serum”. The “cytokine and chemokine gene expression in tumor and draining inguinal lymph nodes” value in assay [3] (WEHI 164 tumor mice, 2 hours after first dose on day 4 after tumor inoculation) is “selective induction of cytokine and chemokine gene expression”. Moreover, the “IL-1β mRNA levels in lymph nodes” value in assay [3] (oral, 30 minutes vs 2 hours after first dose on day 4, inguinal lymph nodes draining WEHI 164 tumors) is given as “increase in lymph nodes before those of other cytokines”. Besides, the “tumor growth (tumor volume)” value in assay [4] (athymic BALB/c (nu/nu) mice) is listed as “significantly inhibited tumor growth”. The tumor rejection result in assay [4] (athymic BALB/c mice, day 2 until day 20) is reported as “not observed”. Also, the “mice with tumors completely rejected by day 20” value in assay [4] (euthymic BALB/c mice, day 2 until day 20) is reported as 40 per cent of the mice. Also, the “tumor growth (tumor volume)” value in assay [4] (normal euthymic BALB/c (+/+) mice) was “significantly inhibited tumor growth”. In assay [5] (IL-1 receptor-1 mutant (−/−) mice compared to normal B6 mice), the “IL-1β levels in the spleen” value is “could still increase IL-1β levels in the spleen; but the magnitude of the response was greatly reduced”. Moreover, in assay [5] (setting [6]), the “serum G-CSF levels” value was “essentially unaffected”, the “serum KC levels” value was “essentially unaffected”, the “splenic G-CSF levels” value is “essentially unaffected” and the “splenic KC levels” value is reported as “essentially unaffected”.

As for “Rituxan: human CD20-specific antibody (anti-CD20 mAb rituximab) [reference compound]”, the “tumor growth (mean tumor volume)” value in assay [1] is on record as “significantly (p<0.05) inhibited tumor growth”.
